Reference: patent publication US20260200928A1, “THERAPEUTIC COMPOUNDS” (Sanofi, priority 2022, published 2026)

Target: T1, human IL-17A (Homo sapiens, UniProt Q16552)
T1 construct: purchased R&D Systems 7955-IL/CF
T1 sequence (Q16552 24-155): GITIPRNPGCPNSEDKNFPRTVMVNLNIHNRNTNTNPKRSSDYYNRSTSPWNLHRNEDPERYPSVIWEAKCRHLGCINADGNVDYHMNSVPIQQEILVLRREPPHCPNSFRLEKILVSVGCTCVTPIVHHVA
Assay: IL-17A AlphaLISA competition assay (block of IL-17A binding to its receptor IL-17RA)
Details: mean IC50 (n≥2), block of IL-17A binding to IL-17RA
Procedure, shortened: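 Human recombinant IL-17A (7.5 nM stock) pre-incubated 30 min at RT with compound, then IL-17RA/Fc (5 nM stock) added for 90 min; AlphaLISA read with anti-Fc acceptor beads, biotinylated anti-IL-17A antibody (5 nM) and streptavidin donor beads (3 h, dark). IC50 from 4-parameter logistic fit, normalised to DMSO and 4 μM reference inhibitor; n≥2.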

Structure (SMILES) | IC50
Cc1nonc1COC(=O)N[C@H](C(=O)Nc1cc(CN2C[C@@H](C(F)(F)F)NC2=O)ccn1)C1CCC(F)(F)CC1 [Example 70, (4-Methyl-1,2,5-oxadiazol-3-yl)methyl ((S)-1-(4,4-difluorocyclohexyl)-2-oxo-2-((4-(((S)-2-oxo-4-(trifluoromethyl)imidazolidin-1-yl)methyl)pyridin-2-yl)amino)ethyl)carbamate] | 8000 nM
C[C@@H](OC(C)(C)C)[C@H](NC(=O)c1ccnn1C)C(=O)Nc1cc(CN2C[C@@H](C(F)(F)F)NC2=O)ccn1 [Example 103, N-((2S,3R)-3-(tert-butoxy)-1-oxo-1-((4-(((S)-2-oxo-4-(trifluoromethyl)-imidazolidin-1-yl)methyl)pyridin-2-yl)amino)butan-2-yl)-1-methyl-1H-pyrazole-5-carboxamide] | 1740 nM
COCC(c1ccnc(NC(=O)C(NC(=O)C(F)(F)C(C)C)C2CCC(C)CC2)c1)N1CC(C(F)(F)F)NC1=O (single isomer, unassigned) [Example 255] | 71 nM
COCC(c1ccnc(NC(=O)C(NC(=O)C(F)(F)c2cnccn2)C2CCC(C)CC2)c1)N1CC(C(F)(F)F)NC1=O (single isomer, unassigned) [Example 251] | 33 nM
CC(C)n1nccc1C(=O)N[C@H](C(=O)Nc1cc(CN2C[C@@H](C(F)(F)F)NC2=O)ccn1)C(C1CC1)C1CC1 [Example 17, N-((S)-1,1-dicyclopropyl-3-oxo-3-((4-(((S)-2-oxo-4-(trifluoromethyl)imidazolidin-1-yl)methyl)pyridin-2-yl)amino)propan-2-yl)-1-isopropyl-1H-pyrazole-5-carboxamide] | 92 nM
O=C(CCC(F)(F)F)NC(c1ccnc(NC(=O)[C@@H](NC(=O)c2ncco2)C2CCC(F)(F)CC2)c1)C1CC1 (stereo partly drawn) [Example 105, N-((1S)-2-((4-(cyclopropyl(4,4,4-trifluorobutanamido)methyl)pyridin-2-yl)amino)-1-(4,4-difluorocyclohexyl)-2-oxoethyl)oxazole-2-carboxamide] | 3340 nM
O=C(N[C@H](C(=O)Nc1cc(C(C2CC2)N2C[C@@H](C(F)(F)F)NC2=O)ccn1)C1CCC(F)(F)CC1)c1nonc1C1CC1 (single isomer, unassigned) [Example 163, 4-Cyclopropyl-N-((S)-2-((4-((R or S)-cyclopropyl((S)-2-oxo-4-(trifluoromethyl)imidazolidin-1-yl)methyl)pyridin-2-yl)amino)-1-(4,4-difluorocyclohexyl)-2-oxoethyl)-1,2,5-oxadiazole-3-carboxamide] | 20 nM
Cc1nonc1C(=O)N[C@H](C(=O)Nc1cc(CN2C[C@@H](C(F)(F)F)NC2=O)ccn1)[C@@H](C)OC(C)(C)C [Example 128, N-((2S,3R)-3-(tert-butoxy)-1-oxo-1-((4-(((S)-2-oxo-4-(trifluoromethyl)-imidazolidin-1-yl)methyl)-pyridin-2-yl)amino)butan-2-yl)-4-methyl-1,2,5-oxa-diazole-3-carboxamide] | 2350 nM
COC[C@H](c1ccnc(NC(=O)[C@@H](NC(=O)c2nocc2OCC(F)F)C2CCC(F)(F)CC2)c1)N1C[C@@H](C(F)(F)F)NC1=O [Example 192, N-((S)-1-(4,4-difluorocyclohexyl)-2-((4-((S)-2-methoxy-1-((S)-2-oxo-4-(trifluoromethyl)imidazolidin-1-yl)ethyl)pyridin-2-yl)amino)-2-oxoethyl)-4-(2,2-difluoroethoxy)isoxazole-3-carboxamide] | 105 nM
COC[C@H](c1ccnc(NC(=O)[C@H](COC(C)(C)C(F)(F)F)NC(=O)c2nonc2C2CC2)c1)N1C[C@@H](C(F)(F)F)NC1=O [Example 269, 4-cyclopropyl-N-((S)-1-((4-((S)-2-methoxy-1-((S)-2-oxo-4-(trifluoromethyl)imidazolidin-1-yl)ethyl)pyridin-2-yl)amino)-1-oxo-3-((1,1,1-trifluoro-2-methylpropan-2-yl)oxy)propan-2-yl)-1,2,5-oxadiazole-3-carboxamide] | 10 nM
[2H]C([2H])([2H])C([2H])([2H])n1ccc(C(=O)N[C@H](C(=O)Nc2cc([C@@H](COC)N3C[C@@H](C(F)(F)F)NC3=O)ccn2)C2CCC(F)(F)CC2)n1 [Example 190, N-((S)-1-(4,4-difluorocyclohexyl)-2-((4-((S)-2-methoxy-1-((S)-2-oxo-4-(trifluoromethyl)imidazolidin-1-yl)ethyl)pyridin-2-yl)amino)-2-oxoethyl)-1-(ethyl-d5)-1H-pyrazole-3-carboxamide] | 816 nM
CCn1nccc1C(=O)NC(C(=O)Nc1cc([C@@H](COC)N2C[C@@H](C(F)(F)F)NC2=O)ccn1)C1CCC(C)(F)CC1 (single isomer, unassigned) [Example 299] | 72 nM
CCn1nccc1C(=O)NC(C(=O)Nc1cc(C(COC)NC(=O)CCC(F)(F)F)ccn1)C1CCC(C)CC1 [Example 244, 1-ethyl-N-((1S)-2-((4-(2-methoxy-1-(4,4,4-trifluorobutanamido)ethyl)pyridin-2-yl)amino)-1-((1r,4S)-4-methylcyclohexyl)-2-oxoethyl)-1H-pyrazole-5-carboxamide] | 47 nM
Cn1nccc1C(=O)N[C@H](C(=O)Nc1cc(C(C2CC2)N2C[C@@H](C(F)(F)F)NC2=O)ccn1)C1CCC(F)(F)CC1 (single isomer, unassigned) [Example 166, N-((1S)-2-((4-((R or S)-cyclopropyl((S)-2-oxo-4-(trifluoromethyl)imidazolidin-1-yl)methyl)pyridin-2-yl)amino)-1-(4,4-difluorocyclohexyl)-2-oxoethyl)-1-methyl-1H-pyrazole-5-carboxamide] | 50 nM
COC[C@H](c1ccnc(NC(=O)[C@@H](NC(=O)Cc2cccc(C#N)c2)C2CCC(F)(F)CC2)c1)N1C[C@@H](C(F)(F)F)NC1=O [Example 206, (S)-2-(2-(3-cyanophenyl)acetamido)-2-(4,4-difluorocyclohexyl)-N-(4-((S)-2-methoxy-1-((S)-2-oxo-4-(trifluoromethyl)imidazolidin-1-yl)ethyl)pyridin-2-yl)acetamide] | 157 nM
C[C@@H]1CNC(=O)N1Cc1ccnc(NC(=O)[C@@H](NC(=O)OC(C)(C)C)[C@H]2CC[C@H](C)CC2)c1 [Example 29, Tert-butyl ((S)-2-((4-(((R)-5-methyl-2-oxoimidazolidin-1-yl)methyl)pyridin-2-yl)amino)-1-((1r,4S)-4-methylcyclohexyl)-2-oxoethyl)carbamate] | 428 nM
CC[C@H](c1ccnc(NC(=O)[C@@H](NC(=O)c2nonc2C)C2CCC(F)(F)CC2)c1)N1C[C@@H](C(F)(F)F)NC1=O [Example 211, N-((S)-1-(4,4-difluorocyclohexyl)-2-oxo-2-((4-((R)-1-((S)-2-oxo-4-(trifluoromethyl)imidazolidin-1-yl)propyl)pyridin-2-yl)amino)ethyl)-4-methyl-1,2,5-oxadiazole-3-carboxamide] | 33 nM
COC[C@H](c1ccnc(NC(=O)[C@@H](NC(=O)c2conc2C)C2CCC(F)(F)CC2)c1)N1C[C@@H](C(F)(F)F)NC1=O [Example 194, N-((S)-1-(4,4-difluorocyclohexyl)-2-((4-((S)-2-methoxy-1-((S)-2-oxo-4-(trifluoromethyl)imidazolidin-1-yl)ethyl)pyridin-2-yl)amino)-2-oxoethyl)-3-methylisoxazole-4-carboxamide] | 68 nM
C[C@H]1CC[C@H]([C@H](NC(=O)c2nonc2C2CC2)C(=O)Nc2cc(CN3C[C@@H](C(F)(F)F)NC3=O)c(F)cn2)CC1 [Example 61, 4-cyclopropyl-N-((S)-2-((5-fluoro-4-(((S)-2-oxo-4-(trifluoromethyl)imidazolidin-1-yl)methyl)pyridin-2-yl)amino)-1-((1r,4S)-4-methylcyclohexyl)-2-oxo-ethyl)-1,2,5-oxadiazole-3-carboxamide] | 612 nM
CCc1nocc1C(=O)N[C@H](C(=O)Nc1cc([C@@H](COC)N2C[C@@H](C(F)(F)F)NC2=O)ccn1)C1CCC(F)(F)CC1 [Example 198, N-((S)-1-(4,4-difluorocyclohexyl)-2-((4-((S)-2-methoxy-1-((S)-2-oxo-4-(trifluoromethyl)imidazolidin-1-yl)ethyl)pyridin-2-yl)amino)-2-oxoethyl)-3-ethylisoxazole-4-carboxamide] | 47 nM
COCC(NC(=O)CCC(F)(F)F)c1ccnc(NC(=O)[C@@H](NC(=O)OC(C)(C)C)C2CCC(F)(F)CC2)c1 (single isomer, unassigned; diastereomer 1) [Example 131] | 680 nM
CC[C@H](c1ccnc(NC(=O)[C@@H](NC(=O)c2ccnn2CC)C2CCC(F)(F)CC2)c1)N1C[C@@H](C(F)(F)F)NC1=O [Example 213, N-((S)-1-(4,4-difluorocyclohexyl)-2-oxo-2-((4-((R)-1-((S)-2-oxo-4-(trifluoromethyl)imidazolidin-1-yl)propyl)pyridin-2-yl)amino)ethyl)-1-ethyl-1H-pyrazole-5-carboxamide] | 28 nM
COC[C@H](c1ccnc(NC(=O)C(NC(=O)c2nonc2C2CC2)C2CCC(F)CC2)c1)N1C[C@@H](C(F)(F)F)NC1=O (single isomer, unassigned) [Example 277] | 44 nM
C[C@@H]1CN(Cc2ccnc(NC(=O)[C@@H](NC(=O)OC(C)(C)C)[C@H]3CC[C@H](C)CC3)c2)C(=O)N1 [Example 30] | 479 nM
CCc1conc1C(=O)N[C@H](C(=O)Nc1cc([C@@H](COC)N2CC(F)(F)CNC2=O)ccn1)C1CCC(F)(F)CC1 [Example 177, N-((S)-2-((4-((S)-1-(5,5-difluoro-2-oxotetrahydropyrimidin-1(2H)-yl)-2-methoxyethyl)pyridin-2-yl)amino)-1-(4,4-difluorocyclohexyl)-2-oxoethyl)-4-ethylisoxazole-3-carboxamide] | 24 nM
